ChEMBL document CHEMBL3272202, “Synthesis and pharmacological activity of some N-alkyl-substituted 9alpha-ethyl-2'-hydroxy-5-methyl-6,7-benzomorphans” (J Med Chem, 1977)
Activity calls are given as the source filed them. No cut-off for these calls is given here.

Key:
[1] = test system: Rhesus monkey; assay: Narcotic antagonist activity in morphine-dependent monkey by precipitated withdrawl test; type: functional, organism-based; details: Macaca mulatta
[2] = test system: Rhesus monkey; assay: Narcotic antagonist activity in morphine-dependent monkey by single dose suppression test; type: functional, organism-based; details: Macaca mulatta
[3] = test system: Mus musculus; assay: Narcotic analgesic activity in mouse assessed as suppression of phenylquinone-induced writhing at 30 mg/kg, sc relative to control; type: functional; details: route subcutaneous
[4] = test system: Mus musculus; assay: Narcotic analgesic activity in sc dosed mouse by hot-plate test; type: functional
[5] = test system: Rattus norvegicus; assay: Narcotic analgesic activity in rat at 30 mg/kg, sc by tail-flick test relative to control; type: functional
[6] = test system: Rattus norvegicus; assay: Narcotic antagonist activity in rat at 30 mg/kg, sc by tail-flick test relative to control; type: functional
[7] = test system: Rhesus monkey; assay: Toxicity in morphine-dependent monkey assessed as morphine substitution measured during single dose suppression test; type: organism-based, Macaca mulatta; details: in vivo
[8] = test system: Rattus norvegicus; assay: Narcotic analgesic activity in sc dosed rat by tail-flick test; type: functional
[9] = test system: Rhesus monkey; assay: Toxicity in morphine-dependent monkey assessed as morphine substitution measured during precipitated withdrawl test; type: organism-based, Macaca mulatta; details: in vivo
[10] = test system: Mus musculus; assay: Narcotic analgesic activity in sc dosed mouse assessed as suppression of phenylquinone-induced writhing; type: functional
[11] = test system: Rattus norvegicus; assay: Narcotic antagonist activity in rat at 1 to 10 mg/kg, sc by tail-flick test; type: functional, organism-based
[12] = test system: Rattus norvegicus; assay: Narcotic antagonist activity in sc dosed rat by tail-flick test; type: functional
[13] = test system: Mus musculus; assay: Toxicity in mouse assessed as ataxia at 3 to 10 mg/kg, sc; type: organism-based; parameters: dose 3-10 mg/kg, route subcutaneous; details: in vivo
[14] = test system: Mus musculus; assay: Narcotic analgesic activity in mouse at 10 to 40 mg/kg, sc by Nilsen test; type: functional, organism-based
[15] = test system: Mus musculus; assay: Toxicity in mouse assessed as hyperactivity at 3 to 10 mg/kg, sc; type: organism-based; parameters: dose 3-10 mg/kg, route subcutaneous; details: in vivo
[16] = test system: Mus musculus; assay: Narcotic analgesic activity in mouse assessed as suppression of phenylquinone-induced writhing at 10 mg/kg, sc relative to control; type: functional; details: route subcutaneous
[17] = test system: Mus musculus; assay: Narcotic analgesic activity in mouse at 50 mg/kg by hot-plate test; type: functional, organism-based; parameters: dose 50 mg/kg
[18] = test system: Mus musculus; assay: Narcotic analgesic activity in mouse at 20 mg/kg, sc by Nilsen test; type: functional, organism-based; parameters: dose 20 mg/kg
[19] = test system: Mus musculus; assay: Toxicity in mouse at 50 mg/kg, sc; type: organism-based; parameters: dose 50 mg/kg, route subcutaneous; details: in vivo
[20] = test system: Rhesus monkey; assay: Toxicity in morphine-dependent monkey assessed as morphine substitution at 2.5 to 20 mg/kg measured during precipitated withdrawl test; type: organism-based, Macaca mulatta; parameters: dose 2.5-20 mg/kg; details: in vivo
[21] = test system: Rhesus monkey; assay: Toxicity in morphine-dependent monkey assessed as morphine substitution at 2.5 to 20 mg/kg measured during single dose suppression test; type: organism-based, Macaca mulatta; parameters: dose 2.5-20 mg/kg; details: in vivo
[22] = test system: Mus musculus; assay: Narcotic analgesic activity in mouse at 20 to 50 mg/kg, sc by hot-plate test; type: functional, organism-based
[23] = test system: Rhesus monkey; assay: Toxicity in morphine-dependent monkey assessed as depression of central nervous system; type: organism-based, Macaca mulatta; details: in vivo
[24] = test system: Mus musculus; assay: Narcotic analgesic activity in mouse at 50 mg/kg, sc by Nilsen test; type: functional, organism-based; parameters: dose 50 mg/kg
[25] = test system: Rhesus monkey; assay: Toxicity in morphine-dependent monkey assessed as convulsion; type: organism-based, Macaca mulatta; details: in vivo
[26] = test system: Rhesus monkey; assay: Toxicity in morphine-dependent monkey assessed as motor incoordination; type: organism-based, Macaca mulatta; details: in vivo
[27] = test system: Rhesus monkey; assay: Toxicity in morphine-dependent monkey assessed as precipitation of abstinence signs; type: organism-based, Macaca mulatta; details: in vivo
[28] = test system: Mus musculus; assay: Narcotic analgesic activity in mouse at 100 mg/kg, sc by hot-plate test; type: functional, organism-based; parameters: dose 100 mg/kg
[29] = test system: Mus musculus; assay: Narcotic analgesic activity in sc dosed mouse by Nilsen test; type: functional
[30] = test system: Mus musculus; assay: Narcotic analgesic activity in mouse at 5 to 10 mg/kg, sc by Nilsen test; type: functional, organism-based
[31] = test system: Mus musculus; assay: Toxicity in mouse at 5 to 10 mg/kg, sc; type: organism-based; parameters: dose 5-10 mg/kg, route subcutaneous; details: in vivo
[32] = test system: Rattus norvegicus; assay: Narcotic antagonist activity in rat at 10 mg/kg, sc by tail-flick test; type: functional; parameters: scale not given: the % may be the effect or the level left
[33] = test system: Rhesus monkey; assay: Toxicity in morphine-dependent monkey assessed as depression of central nervous system in presence of nalorphine; type: organism-based, Macaca mulatta; details: in vivo
[34] = test system: Rhesus monkey; assay: Toxicity in morphine-dependent monkey assessed as depression of central nervous system in presence of naloxone; type: organism-based, Macaca mulatta; details: in vivo

C=CCN1CC[C@]23c4c5ccc(O)c4O[C@H]2C(=O)CC[C@@]3(O)[C@H]1C5
Activity [1]: Active
Activity [2]: Active

CC[C@H]1[C@H]2Cc3ccc(O)cc3[C@@]1(C)CCN2 (racemic)
inhibition in vivo at 30 mg/kg [3]: 45%
ED50 [4]: inactive
inhibition in vivo at 30 mg/kg ([5]; route subcutaneous): 37%
Activity [6]: inactive

CC[C@H]1[C@H]2Cc3ccc(O)cc3[C@@]1(C)CCN2C (racemic)
Activity [7]: Toxic
ED50 [8]: 6.4 mg/kg
Activity [9]: Toxic
ED50 [10]: 0.2 mg/kg
ED50 [4]: 1.3 mg/kg
Activity [11]: inactive

CC[C@H]1[C@H]2Cc3ccc(O)cc3[C@@]1(C)CCN2CC (racemic)
AD50 [12]: 5.5 mg/kg
inhibition in vivo at 30 mg/kg [3]: 27%
ED50 [8]: inactive
ED50 [4]: 21.3 mg/kg

CCCN1CC[C@]2(C)c3cc(O)ccc3C[C@@H]1[C@@H]2CC (racemic)
Activity [13]: Toxic
Activity [14]: inactive
AD50 [12]: 0.7 mg/kg
Activity [15]: Toxic
ED50 [8]: inactive
Activity [16]: 55%
ED50 [4]: inactive

CCCCN1CC[C@]2(C)c3cc(O)ccc3C[C@@H]1[C@@H]2CC (racemic)
AD50 [12]: 2.38 mg/kg
Activity [17]: inactive
Activity [18]: inactive
ED50 [10]: 13 mg/kg
ED50 [4]: inactive
inhibition [5]: inactive
Activity [19]: Toxic

CCCCCN1CC[C@]2(C)c3cc(O)ccc3C[C@@H]1[C@@H]2CC (racemic)
AD50 [12]: inactive
ED50 [8]: 28.1 mg/kg
ED50 [10]: 1.8 mg/kg
ED50 [4]: 4.2 mg/kg
Activity ([6]; route subcutaneous): 39%

CCCCCCN1CC[C@]2(C)c3cc(O)ccc3C[C@@H]1[C@@H]2CC (racemic)
Activity [20]: Non-toxic
ED50 [8]: 18.7 mg/kg
ED50 [10]: 5.7 mg/kg
Activity [21]: Non-toxic
ED50 [4]: 6.2 mg/kg
Activity [6]: inactive

CCCCCCCN1CC[C@]2(C)c3cc(O)ccc3C[C@@H]1[C@@H]2CC (racemic)
AD50 [12]: inactive
ED50 [8]: 14 mg/kg
ED50 [10]: 7.3 mg/kg
ED50 [4]: 9.9 mg/kg

CCCCCCCCN1CC[C@]2(C)c3cc(O)ccc3C[C@@H]1[C@@H]2CC (racemic)
AD50 [12]: inactive
ED50 [8]: inactive
ED50 [10]: 15.1 mg/kg
ED50 [4]: inactive

C=CCN1CC[C@]2(C)c3cc(O)ccc3C[C@@H]1[C@@H]2CC (racemic)
Activity [1]: Active
AD50 [12]: 0.6 mg/kg
Activity [22]: inactive
ED50 [10]: 15.7 mg/kg
inhibition [5]: inactive
Activity [2]: Active

C=CCCCN1CC[C@]2(C)c3cc(O)ccc3C[C@@H]1[C@@H]2CC (racemic)
Activity [23]: Toxic
Activity [24]: inactive
AD50 [12]: 1.18 mg/kg
Activity [25]: Toxic
Activity [26]: Toxic
Activity [27]: Toxic
ED50 [10]: 2.56 mg/kg
Activity [28]: inactive
inhibition [5]: inactive

CC[C@H]1[C@H]2Cc3ccc(O)cc3[C@@]1(C)CCN2CC=C(C)C (racemic)
AD50 [12]: 3.1 mg/kg
ED50 [8]: inactive
Activity [16]: 36%
ED50 [4]: 8.9 mg/kg
ED50 [29]: 26.8 mg/kg

CC[C@H]1[C@H]2Cc3ccc(O)cc3[C@@]1(C)CCN2CC1CC1 (racemic)
Activity [1]: Active
Activity [30]: inactive
Activity [31]: Toxic
AD50 [12]: 0.19 mg/kg
Activity ([32]; route subcutaneous): 12%
ED50 [10]: 2.1 mg/kg
ED50 [4]: inactive
Activity [2]: Active

CC[C@H]1[C@H]2Cc3ccc(O)cc3[C@@]1(C)CCN2CC1CCC1 (racemic)
Activity [33]: Toxic
Activity [34]: Non-toxic
AD50 [12]: 0.477 mg/kg
Activity [27]: Toxic
Activity [32]: inactive
ED50 [10]: 0.31 mg/kg
ED50 [4]: 1.8 mg/kg
ED50 [29]: 2.9 mg/kg

CN1CC[C@]23c4c5ccc(O)c4O[C@H]2[C@@H](O)C=C[C@H]3[C@H]1C5 [MORPHINE]
AD50 [12]: inactive
ED50 [8]: 5.34 mg/kg
ED50 [4]: 1.2 mg/kg
ED50 [29]: 0.8 mg/kg

C=CCN1CC[C@]23c4c5ccc(O)c4O[C@H]2[C@@H](O)C=C[C@H]3[C@H]1C5 [NALORPHINE]
Activity [1]: Active
ED50 [4]: 36.3 mg/kg
ED50 [29]: 4.8 mg/kg
Activity [11]: inactive
Activity [2]: Active
